Reference: ChEMBL document CHEMBL1201862, “PubChem BioAssay data set” (2004)
Activity calls are given as the source filed them.

Key:
HEK293 [1] = assay: HEK293T cell viability loss, resazurin readout – resazurin fluorescence, cytotoxicity control for NF-kB activator project, SAR follow-up (AID 493251); assay type: functional, cell-based; settings: Homo sapiens
Jurkat = assay: SAR Analysis of small molecule inhibitors of T-cell specific antigen receptor-induced NF-kB activation in a Jurkat cell line using a luminescence assay - Set 2. [Related pubchem assays (depositor defined):AID435003, AID435012, AID465]; assay type: functional, cell-based; settings: Homo sapiens
HEK293 [2] = assay: SAR Analysis of small molecule inhibitors of T-cell specific antigen receptor-induced NF-kB activation in a HEK-293T cell line using a luminescence assay - Set 2. [Related pubchem assays (depositor defined):AID435003, AID435012, AID489026]; assay type: functional, cell-based; settings: Homo sapiens
[3] = molecular target: Dual specificity protein kinase CLK4 (Homo sapiens, UniProt Q9HAZ1); assay type: functional
Sequence of Dual specificity protein kinase CLK4 (Q9HAZ1 whole entry): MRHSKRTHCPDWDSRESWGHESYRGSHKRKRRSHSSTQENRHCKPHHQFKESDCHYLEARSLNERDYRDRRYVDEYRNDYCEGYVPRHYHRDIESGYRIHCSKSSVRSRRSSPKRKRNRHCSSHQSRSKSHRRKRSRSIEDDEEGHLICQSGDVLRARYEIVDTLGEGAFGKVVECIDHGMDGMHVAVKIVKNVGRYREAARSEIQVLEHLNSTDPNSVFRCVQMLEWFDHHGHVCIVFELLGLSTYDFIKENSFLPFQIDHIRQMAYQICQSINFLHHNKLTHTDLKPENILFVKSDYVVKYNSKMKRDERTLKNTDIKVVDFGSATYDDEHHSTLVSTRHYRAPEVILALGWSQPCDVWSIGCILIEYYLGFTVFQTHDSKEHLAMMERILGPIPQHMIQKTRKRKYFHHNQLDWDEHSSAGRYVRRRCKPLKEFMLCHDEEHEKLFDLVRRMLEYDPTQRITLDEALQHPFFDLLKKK

Aurora kinase B = Aurora kinase B (Homo sapiens, UniProt Q96GD4); assay type: functional
Sequence of Aurora kinase B (Q96GD4 whole entry): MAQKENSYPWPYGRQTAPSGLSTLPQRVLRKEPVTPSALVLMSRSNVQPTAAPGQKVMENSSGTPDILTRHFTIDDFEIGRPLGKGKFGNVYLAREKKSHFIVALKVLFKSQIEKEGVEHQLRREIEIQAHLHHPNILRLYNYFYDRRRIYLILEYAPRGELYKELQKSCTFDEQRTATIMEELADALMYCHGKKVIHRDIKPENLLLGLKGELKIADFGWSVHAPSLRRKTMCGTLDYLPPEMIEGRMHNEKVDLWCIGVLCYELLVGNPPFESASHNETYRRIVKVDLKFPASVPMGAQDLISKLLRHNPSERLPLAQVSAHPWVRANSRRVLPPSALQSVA

[4] = molecular target: Mitogen-activated protein kinase kinase kinase kinase 4 (Homo sapiens, UniProt O95819); assay type: functional
Sequence of Mitogen-activated protein kinase kinase kinase kinase 4 (O95819 whole entry): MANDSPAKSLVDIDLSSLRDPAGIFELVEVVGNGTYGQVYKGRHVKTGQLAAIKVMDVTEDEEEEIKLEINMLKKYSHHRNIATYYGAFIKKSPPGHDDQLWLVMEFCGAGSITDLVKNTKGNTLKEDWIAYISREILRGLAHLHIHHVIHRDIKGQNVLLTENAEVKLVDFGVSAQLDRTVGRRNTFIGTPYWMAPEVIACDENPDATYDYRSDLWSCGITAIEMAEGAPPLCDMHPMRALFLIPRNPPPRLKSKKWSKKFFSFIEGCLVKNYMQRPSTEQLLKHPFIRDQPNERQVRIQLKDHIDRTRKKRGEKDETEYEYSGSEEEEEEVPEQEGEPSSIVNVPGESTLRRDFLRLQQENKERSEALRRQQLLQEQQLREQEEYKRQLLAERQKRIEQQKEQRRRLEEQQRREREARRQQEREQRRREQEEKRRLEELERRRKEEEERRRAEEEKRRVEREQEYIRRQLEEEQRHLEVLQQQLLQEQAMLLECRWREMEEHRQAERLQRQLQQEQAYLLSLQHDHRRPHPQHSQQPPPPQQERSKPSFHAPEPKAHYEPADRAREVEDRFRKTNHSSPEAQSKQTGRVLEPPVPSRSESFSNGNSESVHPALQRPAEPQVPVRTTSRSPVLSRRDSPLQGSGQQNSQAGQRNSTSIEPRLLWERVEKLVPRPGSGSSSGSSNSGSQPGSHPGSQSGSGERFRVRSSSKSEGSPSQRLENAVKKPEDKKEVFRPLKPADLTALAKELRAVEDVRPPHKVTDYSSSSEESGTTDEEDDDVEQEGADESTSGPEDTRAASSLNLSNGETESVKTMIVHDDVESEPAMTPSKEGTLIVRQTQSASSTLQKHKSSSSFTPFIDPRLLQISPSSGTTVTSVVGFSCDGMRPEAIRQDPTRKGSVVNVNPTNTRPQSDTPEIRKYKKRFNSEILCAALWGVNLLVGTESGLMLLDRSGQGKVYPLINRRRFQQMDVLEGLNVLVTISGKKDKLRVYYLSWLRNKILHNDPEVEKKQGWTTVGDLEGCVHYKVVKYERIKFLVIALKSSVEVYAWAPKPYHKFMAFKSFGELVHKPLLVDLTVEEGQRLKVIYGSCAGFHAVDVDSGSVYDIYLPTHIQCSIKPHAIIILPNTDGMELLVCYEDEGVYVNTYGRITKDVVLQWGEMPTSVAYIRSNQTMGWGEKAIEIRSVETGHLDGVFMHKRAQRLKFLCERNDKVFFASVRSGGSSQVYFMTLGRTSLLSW

Aurora kinase A = Aurora kinase A (Homo sapiens, UniProt O14965); assay type: functional;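 also: value from the Navigating the Kinome kinase panel profiling, panel entry STK6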
Sequence of Aurora kinase A (O14965 whole entry): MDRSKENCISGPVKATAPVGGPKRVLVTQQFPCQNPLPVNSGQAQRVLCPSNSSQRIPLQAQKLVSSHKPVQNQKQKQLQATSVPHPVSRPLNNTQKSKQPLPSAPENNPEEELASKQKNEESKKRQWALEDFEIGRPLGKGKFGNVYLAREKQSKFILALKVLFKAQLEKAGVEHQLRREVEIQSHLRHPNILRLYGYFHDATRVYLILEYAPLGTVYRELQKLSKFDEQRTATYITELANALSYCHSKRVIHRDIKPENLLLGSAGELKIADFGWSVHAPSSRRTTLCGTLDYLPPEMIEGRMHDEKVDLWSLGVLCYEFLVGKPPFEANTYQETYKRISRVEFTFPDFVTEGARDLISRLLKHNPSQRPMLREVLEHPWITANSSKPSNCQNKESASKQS

[5] = molecular target: Glycogen synthase kinase-3 beta (Homo sapiens, UniProt P49841); assay type: functional;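 also: value comes from a broad kinome profiling panel, with GSK3B as the panel member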
Sequence of Glycogen synthase kinase-3 beta (P49841 whole entry): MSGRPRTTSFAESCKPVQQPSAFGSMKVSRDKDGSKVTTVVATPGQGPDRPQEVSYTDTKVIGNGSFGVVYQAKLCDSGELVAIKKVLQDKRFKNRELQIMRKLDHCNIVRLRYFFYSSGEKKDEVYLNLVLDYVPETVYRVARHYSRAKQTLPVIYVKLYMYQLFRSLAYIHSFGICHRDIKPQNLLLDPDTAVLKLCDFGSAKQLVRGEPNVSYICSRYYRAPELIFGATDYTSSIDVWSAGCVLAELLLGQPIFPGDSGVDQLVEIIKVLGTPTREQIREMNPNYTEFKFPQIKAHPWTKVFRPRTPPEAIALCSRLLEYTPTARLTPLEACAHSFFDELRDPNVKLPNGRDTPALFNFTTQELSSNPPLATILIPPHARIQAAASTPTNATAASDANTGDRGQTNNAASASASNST

[6] = molecular target: cAMP-dependent protein kinase catalytic subunit alpha (Homo sapiens, UniProt P17612); assay type: functional
[7] = molecular target: MAP kinase-interacting serine/threonine-protein kinase 2 (Homo sapiens, UniProt Q9HBH9); assay type: functional
[8] = molecular target: Homeodomain-interacting protein kinase 2 (Homo sapiens, UniProt Q9H2X6); assay type: functional;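 also: measured within a kinome-wide kinase profiling panel, HIPK2 being one panel member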
Sequence of Homeodomain-interacting protein kinase 2 (Q9H2X6 whole entry): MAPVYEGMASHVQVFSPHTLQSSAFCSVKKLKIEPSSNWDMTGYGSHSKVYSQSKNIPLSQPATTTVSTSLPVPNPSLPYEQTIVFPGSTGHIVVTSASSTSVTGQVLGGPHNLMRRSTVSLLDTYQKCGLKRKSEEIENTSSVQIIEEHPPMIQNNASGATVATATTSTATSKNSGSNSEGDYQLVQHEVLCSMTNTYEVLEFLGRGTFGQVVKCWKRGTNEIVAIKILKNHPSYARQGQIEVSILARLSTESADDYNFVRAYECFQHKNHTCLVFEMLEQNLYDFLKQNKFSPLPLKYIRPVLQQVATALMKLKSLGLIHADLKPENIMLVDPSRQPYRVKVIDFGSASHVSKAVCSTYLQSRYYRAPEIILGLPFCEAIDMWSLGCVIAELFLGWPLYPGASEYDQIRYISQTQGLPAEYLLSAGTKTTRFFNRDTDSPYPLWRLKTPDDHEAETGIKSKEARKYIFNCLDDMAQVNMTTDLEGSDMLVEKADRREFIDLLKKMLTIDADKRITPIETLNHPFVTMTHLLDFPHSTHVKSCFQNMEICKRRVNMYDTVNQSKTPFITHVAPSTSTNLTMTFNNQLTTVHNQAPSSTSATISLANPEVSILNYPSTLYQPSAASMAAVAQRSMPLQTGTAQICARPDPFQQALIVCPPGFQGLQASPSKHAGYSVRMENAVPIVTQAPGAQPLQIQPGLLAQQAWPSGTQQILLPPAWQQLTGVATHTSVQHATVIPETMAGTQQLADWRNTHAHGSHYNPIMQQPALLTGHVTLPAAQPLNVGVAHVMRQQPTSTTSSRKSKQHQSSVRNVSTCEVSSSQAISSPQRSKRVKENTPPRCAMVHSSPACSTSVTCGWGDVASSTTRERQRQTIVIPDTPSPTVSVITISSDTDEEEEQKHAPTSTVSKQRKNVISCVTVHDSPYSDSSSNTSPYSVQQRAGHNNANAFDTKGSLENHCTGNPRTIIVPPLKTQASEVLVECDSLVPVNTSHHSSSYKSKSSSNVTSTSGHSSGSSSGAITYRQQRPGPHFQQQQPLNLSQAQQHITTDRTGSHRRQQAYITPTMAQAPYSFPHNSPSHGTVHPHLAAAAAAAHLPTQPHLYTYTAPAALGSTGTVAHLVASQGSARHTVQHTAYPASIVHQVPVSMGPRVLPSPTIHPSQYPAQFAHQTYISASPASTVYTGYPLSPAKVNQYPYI

[9] = molecular target: T1, Interleukin-1 receptor-associated kinase 4 (Homo sapiens, UniProt Q9NWZ3); assay type: functional
T1 sequence (Q9NWZ3 whole entry): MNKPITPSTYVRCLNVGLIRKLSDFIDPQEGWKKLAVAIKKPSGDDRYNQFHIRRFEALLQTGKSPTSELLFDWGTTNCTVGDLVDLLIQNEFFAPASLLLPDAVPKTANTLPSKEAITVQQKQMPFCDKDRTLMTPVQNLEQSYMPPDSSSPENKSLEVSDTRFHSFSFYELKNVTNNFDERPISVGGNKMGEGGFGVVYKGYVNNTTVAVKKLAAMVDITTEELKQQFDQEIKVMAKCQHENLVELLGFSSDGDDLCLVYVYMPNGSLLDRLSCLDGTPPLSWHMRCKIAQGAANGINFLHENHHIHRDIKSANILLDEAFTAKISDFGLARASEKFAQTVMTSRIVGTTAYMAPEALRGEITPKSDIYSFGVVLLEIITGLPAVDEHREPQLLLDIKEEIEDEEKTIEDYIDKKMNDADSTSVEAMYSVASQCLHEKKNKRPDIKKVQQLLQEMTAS

[10] = molecular target: Serine/threonine-protein kinase pim-1 (Homo sapiens, UniProt P11309); assay type: functional
Sequence of Serine/threonine-protein kinase pim-1 (P11309 whole entry): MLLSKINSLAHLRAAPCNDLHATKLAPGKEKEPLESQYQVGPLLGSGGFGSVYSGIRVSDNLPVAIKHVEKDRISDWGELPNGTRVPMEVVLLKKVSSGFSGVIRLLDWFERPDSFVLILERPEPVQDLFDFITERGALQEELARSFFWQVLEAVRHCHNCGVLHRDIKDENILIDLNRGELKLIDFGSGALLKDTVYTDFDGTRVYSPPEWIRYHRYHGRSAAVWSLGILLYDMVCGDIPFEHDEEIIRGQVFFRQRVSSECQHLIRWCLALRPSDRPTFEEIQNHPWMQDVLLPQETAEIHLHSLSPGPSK

[11] = Luminescence Cell-Based Dose Response Follow up to Identify Inhibitors of Platelet Dense Granule Release. [Related pubchem assays (depositor defined):AID1663, AID1678, AID2398]; assay type: functional
[12] = blockers of SFLLRN-triggered platelet ATP secretion – cell-based, human platelets, luminescence, dry powder, dose response (AID 493100); assay type: functional
[13] = system: Streptococcus sp. 'group A'; assay: Streptococcus pyogenes SK(-)GAS viability under kanamycin – luminescence, BacTiterGlo, confirmation, counter-screen for streptokinase expression inhibitor project, dose response (AID 1900); assay type: functional, organism-based
Streptococcus = assay: GAS UMAA2166 growth inhibition – luminescence, BacTiterGlo, counter-screen for streptokinase expression inhibitor project, dose response (AID 1915); assay type: functional, organism-based;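 also: potency for reduction of bacterial viability or growth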
[14] = molecular target: T2, Endoribonuclease toxin MazF (Escherichia coli K-12, UniProt P0AE70); assay: substrate-only fluorescence increase artefacts – biochemical, single-stranded RNase substrate, counter-screen for MazEF activator project, dose response (AID 588502); assay type: functional
T2 sequence (P0AE70 whole entry): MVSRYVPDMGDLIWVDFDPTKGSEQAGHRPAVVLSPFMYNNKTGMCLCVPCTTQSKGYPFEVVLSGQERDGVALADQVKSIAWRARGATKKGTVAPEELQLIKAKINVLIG

Galanin receptor type 2 = Galanin receptor type 2 (Homo sapiens, UniProt O43603); assay: Dose Response cell-based high-throughput screening assay to identify antagonists of galanin receptor 2 (GALR2). [Related pubchem assays: 828, 866 ]; assay type: functional
Sequence of Galanin receptor type 2 (O43603 whole entry): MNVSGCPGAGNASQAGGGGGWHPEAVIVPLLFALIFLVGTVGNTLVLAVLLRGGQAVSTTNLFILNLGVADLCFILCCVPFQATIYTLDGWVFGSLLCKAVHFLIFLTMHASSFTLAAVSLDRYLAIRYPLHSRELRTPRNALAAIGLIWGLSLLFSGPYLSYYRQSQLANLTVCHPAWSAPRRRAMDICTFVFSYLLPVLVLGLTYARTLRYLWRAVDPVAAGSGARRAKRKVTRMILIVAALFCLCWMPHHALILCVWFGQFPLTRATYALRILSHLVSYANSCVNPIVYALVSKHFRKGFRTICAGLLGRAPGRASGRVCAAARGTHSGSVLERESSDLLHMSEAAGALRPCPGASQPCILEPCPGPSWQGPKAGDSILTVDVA

Streptokinase A = molecular target: T3, Streptokinase A (Streptococcus pyogenes serotype M1, UniProt P10520); assay: viability-normalized secreted streptokinase activity reduction – plasminogen activation absorbance, OD405, dose response (AID 1914); assay type: functional, Streptococcus pyogenes M1 GAS;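 also: secreted streptokinase activity via plasminogen activation per viability signal from cell pellet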
T3 sequence (P10520 whole entry): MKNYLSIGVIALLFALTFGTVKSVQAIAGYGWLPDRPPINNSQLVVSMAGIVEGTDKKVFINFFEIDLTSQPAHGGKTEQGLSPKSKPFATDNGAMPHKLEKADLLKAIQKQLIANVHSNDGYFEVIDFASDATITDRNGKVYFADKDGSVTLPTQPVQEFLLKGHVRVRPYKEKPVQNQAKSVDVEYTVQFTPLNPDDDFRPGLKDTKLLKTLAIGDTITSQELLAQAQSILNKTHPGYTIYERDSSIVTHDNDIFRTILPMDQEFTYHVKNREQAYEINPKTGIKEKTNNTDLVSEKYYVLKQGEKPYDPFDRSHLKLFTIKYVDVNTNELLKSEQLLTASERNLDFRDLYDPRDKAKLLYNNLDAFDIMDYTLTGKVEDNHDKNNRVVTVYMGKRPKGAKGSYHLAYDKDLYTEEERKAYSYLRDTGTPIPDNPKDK

[15] = molecular target: T2, Endoribonuclease toxin MazF; assay: activation of MazEF endoribonuclease cleavage – biochemical, fluorescence, single-stranded RNA substrate, uHTS hits, dose response (AID 588481); assay type: functional
DNA topoisomerase = DNA topoisomerase (Yersinia pestis, UniProt A0A2S9PM60); assay: Yersinia topoisomerase I cleavage product accumulation – biochemical, cherry-pick, dose response (AID 588525)
[16] = molecular target: Protein disulfide-isomerase (Homo sapiens, UniProt P07237); assay: inhibition of PDI-driven insulin aggregation – biochemical, turbidity, absorbance, cherry-picked samples, dose response (AID 602350); assay type: functional

In the case of CCCCNC(=O)CCc1nc(-c2ccc(C(C)(C)C)cc2)no1, the IC50 (HEK293 [1]) is reported as > 80 µM (inactive), the IC50 (Jurkat) is reported as > 79 µM (inactive) and the IC50 (HEK293 [2]) is reported as 14.5 µM (active).
With Cc1ccc(Nc2nccc(Nc3ccccc3C(=O)O)n2)cc1F the Ki [3] was 0.0794 µM (active), the Ki (Aurora kinase B) was 0.00501 µM (active) and the Ki [4] was 0.2 µM (active). The Ki (Aurora kinase A) was 0.0158 µM (active), the Ki [5] was 0.00316 µM (active) and the Ki [6] was > 7.94 µM (inactive). The Ki [7] was 0.251 µM (active), the Ki [8] was 0.00631 µM (active) and the Ki [9] was 3.98 µM (active). The Ki [10] was 0.158 µM (active).
In the case of CC(=O)Nc1ccc(/C(C)=N/NC(=O)C2CCCC2)cc1, the EC50 [11] is reported as 11.3 µM (active) and the AC50 [12] is reported as 126 µM (active).
For O=C(Cc1cccs1)Nc1cccc(-c2nc3cc4ccccc4cc3[nH]2)c1, the EC50 [13] was 4.51 µM (active), the EC50 (Streptococcus) was 14.9 µM (active) and the EC50 [14] was > 99 µM (inactive). The IC50 (Galanin receptor type 2) was > 42 µM (not active), the EC50 (Streptokinase A) was > 150 µM (not active) and the EC50 [15] was > 99 µM (inactive).
In the case of O=C(C[C@H]1C/C=C\CC[C@H](Cc2ccc(F)cc2)C(=O)O[C@@H](c2ccccc2)CNC1=O)N[C@@H](CO)Cc1ccccc1, the AC50 (DNA topoisomerase) is reported as > 38 µM (inactive).
For C[C@@H]1CN([C@H](C)CO)C(=O)c2cccc(NS(C)(=O)=O)c2O[C@H]1CN(C)Cc1ccc(Oc2ccccc2)cc1, the AC50 [16] was 18.8 µM (active).
